Measurements taken from US7763598B2, “1α-hydroxy-2-(3′-hydroxypropylidene)-19-nor-vitamin D compounds with a 1,1-dimethylpropyl side chain” (Wisconsin Alumni Research Foundation, priority 2006, dated 2010).

Legend:
[1] = Bone calcium mobilization (serum calcium) in vitamin D-deficient rats; assay type: in vivo, rat
Description: (§1) Male, weanling Sprague-Dawley rats were placed on Diet 11 (0.47% Ca) diet +AEK for one week followed by Diet 11 (0.02% Ca) +AEK for 3 weeks. The rats were then switched to a diet containing 0.47% Ca for one week followed by two weeks on a diet containing 0.02% Ca. Dose administration began during the last week on 0.02% calcium diet. Four consecutive ip doses were given approximately 24 hours apart. Twenty-four hours after the last dose, blood was collected from the severed neck and the concentration of serum calcium determined as a measure of bone calcium mobilization. The first 10 cm of the intestine was also collected for intestinal calcium transport analysis using the everted gut sac method.

[2] = tested on: Human promyelocytic leukemia (HL60) cells; test: HL-60 differentiation (nitro blue tetrazolium reduction); assay type: cell-based; conditions: FIG. 2; for EC50: HL60 cells, 4 days, NBT reduction
Description: The study drugs were dissolved in ethanol and the concentrations determined using UV spectrophotometry. Serial dilutions were prepared so that a range of drug concentrations could be tested without changing the final concentration of ethanol (≦0.2%) present in the cell cultures.
Human promyelocytic leukemia (HL60) cells were grown in RPMI-1640 medium containing 10% fetal bovine serum. The cells were incubated at 37° C. in the presence of 5% CO2.
HL60 cells were plated at 1.2×10^5 cells/ml. Eighteen hours after plating, cells in duplicate were treated with drug. Four days later, the cells were harvested and a nitro blue tetrazolium reduction assay was performed (Collins et al., 1979; J. Exp. Med. 149:969-974). The percentage of differentiated cells was determined by counting a total of 200 cells and recording the number that contained intracellular black-blue formazan deposits. Verification of differentiation to monocytic cells was determined by measuring phagocytic activity (data not shown).

[3] = tested on: 24-hydroxylase (24Ohase) gene promoter; test: In vitro transcription assay (luciferase reporter in ROS 17/2.8 bone cells); assay type: cell-based; conditions: FIG. 3; for EC50: ROS 17/2.8 cells, 24Ohase promoter-luciferase, 16 h, read-out: EC50, transcriptional activity in bone cells
Description: Transcription activity was measured in ROS 17/2.8 (bone) cells that were stably transfected with a 24-hydroxylase (24Ohase) gene promoter upstream of a luciferase reporter gene (Arbour et al., 1998). Cells were given a range of doses. Sixteen hours after dosing the cells were harvested and luciferase activities were measured using a luminometer.
RLU=Relative Luciferase Units.

[4] = Intestinal calcium transport (everted gut sac) in vitamin D-deficient rats; assay type: in vivo, rat; conditions: for Intestinal calcium transport: everted gut sac, vitamin D-deficient rats, FIG. 5
Description: as §1

[5] = target: T1, full-length recombinant rat vitamin D receptor (Rattus norvegicus, UniProt P13053); test: Vitamin D receptor binding (competition with [3H]-1,25(OH)2D3); conditions: full-length recombinant rat VDR; FIG. 1
T1 construct: Full-length recombinant rat receptor was expressed in E. coli; histidine tag (C); made in house; host or cells: E. coli BL21 (DE3) Codon Plus RIL
T1 sequence (P13053 1-423): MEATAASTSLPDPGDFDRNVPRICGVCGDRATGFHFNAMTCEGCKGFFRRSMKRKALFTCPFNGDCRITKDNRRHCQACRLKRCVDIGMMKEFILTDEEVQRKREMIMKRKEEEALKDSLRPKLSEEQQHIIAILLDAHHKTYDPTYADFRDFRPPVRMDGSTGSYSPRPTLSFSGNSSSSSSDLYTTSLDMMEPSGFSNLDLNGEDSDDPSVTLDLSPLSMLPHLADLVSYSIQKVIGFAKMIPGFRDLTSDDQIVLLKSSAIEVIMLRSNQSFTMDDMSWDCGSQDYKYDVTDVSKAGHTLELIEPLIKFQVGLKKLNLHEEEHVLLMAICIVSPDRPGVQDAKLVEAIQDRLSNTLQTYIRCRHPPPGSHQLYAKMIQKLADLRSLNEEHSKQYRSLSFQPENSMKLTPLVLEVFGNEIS
Description: Full-length recombinant rat receptor was expressed in E. coli BL21 (DE3) Codon Plus RIL cells and purified to homogeneity using two different column chromatography systems. The first system was a nickel affinity resin that utilizes the C-terminal histidine tag on this protein. The protein that was eluted from this resin was further purified using ion exchange chromatography (S-Sepharose Fast Flow). Aliquots of the purified protein were quick frozen in liquid nitrogen and stored at −80° C. until use. For use in binding assays, the protein was diluted in TEDK50 (50 mM Tris, 1.5 mM EDTA, pH7.4, 5 mM DTT, 150 mM KCl) with 0.1% Chaps detergent. The receptor protein and ligand concentration were optimized such that no more than 20% of the added radiolabeled ligand was bound to the receptor.
Radiolabeled and unlabeled ligands were added to 100 mcl of the diluted protein at a final ethanol concentration of ≦10%, mixed and incubated overnight on ice to reach binding equilibrium. The following day, 100 mcl of hydroxylapatite slurry (50%) was added to each tube and mixed at 10-minute intervals for 30 minutes. […] After the final wash, the pellets were transferred to scintillation vials containing 4 ml of Biosafe II scintillation cocktail, mixed and placed in a scintillation counter. Total binding was determined from the tubes containing only radiolabeled ligand.

SMILES | Serum calcium levels (bone calcium mobilization) ([1]; at the dosage tested, vitamin D-deficient rats on low calcium diet (0.02%), FIG. 4) | EC50 [2] [nM] | EC50 [3] [nM] | Intestinal calcium transport ([4]; 260 pmol/day) | Bone calcium mobilization (serum calcium) ([1]; 260 pmol/day ip for 4 consecutive days, vitamin D-deficient rats on low calcium diet (0.02%), FIG. 4) | Bone calcium mobilization (serum calcium) ([1]; 2340 pmol/day ip for 4 consecutive days, vitamin D-deficient rats on low calcium diet (0.02%), FIG. 4) | Bone calcium mobilization activity compared to 1,25(OH)2D3 (in words) ([1]; FIG. 4, overall) | Binding to vitamin D receptor compared to 1,25-(OH)2D3 (in words) [5] | Ki [5] [nM] | HL-60 cell differentiation potency compared to 1,25(OH)2D3 (in words) [2] | EC50 ([2]; Homo sapiens, HL-60, 96 h) [nM] | Transcriptional activity in bone cells compared to 1α,25-dihydroxyvitamin D3 (in words) [3] | Intestinal calcium transport ([4]; 2340 pmol/day) | Stimulating intestinal calcium transport compared to 1,25(OH)2D3 (in words) ([4]; FIG. 5, overall)
C=C1/C(=C\C=C2/CCC[C@]3(C)[C@@H]([C@H](C)CCCC(C)(C)O)CC[C@@H]23)C[C@@H](O)C[C@@H]1O [1,25(OH)2D3, 1α,25-dihydroxyvitamin D3, reference compound] | increased serum calcium levels | 20 | 0.2 | promotes a significant increase |  |  |  |  |  |  |  |  |  | 
CCC(C)(C)C1CCC2C(=CC=C3CC(O)C(=CCCO)C(O)C3)CCCC21C (stereo not drawn) [20DC, 1α-hydroxy-2-[3′-hydroxypropylidene]-20-methyl-19,24,25,26,27-pentanorvitamin D3] |  |  | 2 | does not promote intestinal calcium transport | did not result in mobilization of bone calcium | without any substantial effect | very little bone calcium mobilization activity | bound equally well | 0.08 | about as potent as 1,25(OH)2D3 | 50 | about the same transcriptional activity | does not promote intestinal calcium transport | very little activity
